# In PMC10215302 (Antibiotics, 2023):
# Read-outs that look alike come from different tables or passages of the source.
# Tests used:
# [1] = system: S. aureus SA0077; settings: for MIC values: Table S1: SA0077 Abf (passages on antibiotic-free media)
# [2] = system: S. aureus SA0085; settings: for MIC values: Table S1: SA0085 Abf (passages on antibiotic-free media)
# [3] = system: S. aureus SA0422
# [4] = system: S. aureus SA0736
# [5] = system: S. aureus ATCC 29213
# [6] = system: S. aureus RN4220
# [7] = system: S. aureus derivative strains; settings: for MIC: daptomycin-selected derivative strains without WalK mutations (all except SA0422), susceptible
# [8] = SA0077, selecting agent DAP, passage 20
# [9] = SA0077, selecting agent DAP, passage 40
# [10] = SA0077, selecting agent VAN, passage 0
# [11] = SA0077, selecting agent VAN, passage 5
# [12] = SA0077, selecting agent VAN, passage 20
# [13] = SA0077, selecting agent VAN, passage 40
# [14] = SA0085, selecting agent DAP, passage 5
# [15] = SA0085, selecting agent DAP, passage 40
# [16] = SA0085, selecting agent VAN, passage 0
# [17] = SA0085, selecting agent VAN, passage 5
# [18] = SA0085, selecting agent VAN, passage 20
# [19] = SA0085, selecting agent VAN, passage 40
# [20] = SA0422, selecting agent DAP, passage 5
# [21] = SA0422, selecting agent DAP, passage 20
# [22] = SA0422, selecting agent DAP, passage 40
# [23] = SA0422, selecting agent VAN, passage 0
# [24] = SA0422, selecting agent VAN, passage 5
# [25] = SA0422, selecting agent VAN, passage 20
# [26] = SA0422, selecting agent VAN, passage 40
# [27] = SA0736, selecting agent DAP, passage 5
# [28] = SA0736, selecting agent DAP, passage 20
# [29] = SA0736, selecting agent DAP, passage 40Y (yellow colonies)
# [30] = SA0736, selecting agent VAN, passage 0
# [31] = SA0736, selecting agent VAN, passage 5
# [32] = SA0736, selecting agent VAN, passage 20
# [33] = SA0736, selecting agent VAN, passage 40
# [34] = Table S1: SA0736 DAP-W (40 passages on daptomycin, white colonies)
# [35] = Table S1: SA0736 DAP-Y (40 passages on daptomycin, yellow colonies)
# [36] = ATCC 29213, selecting agent DAP, passage 5
# [37] = ATCC 29213, selecting agent DAP, passage 20
# [38] = ATCC 29213, selecting agent DAP, passage 40
# [39] = ATCC 29213, selecting agent VAN, passage 0
# [40] = ATCC 29213, selecting agent VAN, passage 5
# [41] = ATCC 29213, selecting agent VAN, passage 20
# [42] = ATCC 29213, selecting agent VAN, passage 40
# [43] = Table S1: RN4220 ∆ (strain with deletion in SACOL1927)
# [44] = SA0085, selecting agent DAP, passage 20
# [45] = SA0736, selecting agent DAP, passage 40W (white colonies)
substance,measurement,setting,value
dalbavancin,MIC,"[1]; SA0077, selecting agent DAP, passage 5",<0.03 µg/mL
same,MIC,[1]; [8],0.125 µg/mL
same,MIC,[1]; [9],0.125 µg/mL
same,MIC,[1]; [10],0.03 µg/mL
same,MIC,[1]; [11],0.25 µg/mL
same,MIC,[1]; [12],1 µg/mL
same,MIC,[1]; [13],2 µg/mL
same,MIC values,[1],0.03 µg/mL
same,MIC,[2]; [14],<0.016 µg/mL
same,MIC,[2]; [15],0.125 µg/mL
same,MIC,[2]; [16],<0.016 µg/mL
same,MIC,[2]; [17],0.06 µg/mL
same,MIC,[2]; [18],0.5 µg/mL
same,MIC,[2]; [19],0.25 µg/mL
same,MIC values,[2],0.03 µg/mL
same,MIC,[3]; [20],0.06 µg/mL
same,MIC,[3]; [21],0.25 µg/mL
same,MIC,[3]; [22],0.25 µg/mL
same,MIC,[3]; [23],0.03 µg/mL
same,MIC,[3]; [24],0.125 µg/mL
same,MIC,[3]; [25],0.5 µg/mL
same,MIC,[3]; [26],1 µg/mL
same,MIC,[4]; [27],0.03 µg/mL
same,MIC,[4]; [28],0.25 µg/mL
same,MIC,[4]; [29],0.5 µg/mL
same,MIC,[4]; [30],0.03 µg/mL
same,MIC,[4]; [31],0.125 µg/mL
same,MIC,[4]; [32],1 µg/mL
same,MIC,[4]; [33],1 µg/mL
same,MIC values,[4]; [34],0.5 µg/mL
same,MIC values,[4]; [35],0.5 µg/mL
same,MIC,[5]; [36],0.03 µg/mL
same,MIC,[5]; [37],0.06 µg/mL
same,MIC,[5]; [38],0.125 µg/mL
same,MIC,[5]; [39],<0.016 µg/mL
same,MIC,[5]; [40],<0.016 µg/mL
same,MIC,[5]; [41],<0.016 µg/mL
same,MIC,[5]; [42],2 µg/mL
same,MIC values,[6]; Table S1: RN4220 WT,0.03 µg/mL
same,MIC values,[6]; [43],0.03 µg/mL
same,MIC,[7],≤ 0.125 µg/mL
teicoplanin [TEC],MIC,[1]; [8],0.25 µg/mL
same,MIC,[1]; [9],0.25 µg/mL
same,MIC,[1]; [10],0.25 µg/mL
same,MIC,[1]; [11],8 µg/mL
same,MIC,[1]; [12],8 µg/mL
same,MIC,[1]; [13],8 µg/mL
same,MIC values,[1],.125 µg/mL
same,MIC,[2]; [14],0.125 µg/mL
same,MIC,[2]; [44],8 µg/mL
same,MIC,[2]; [15],8 µg/mL
same,MIC,[2]; [16],0.125 µg/mL
same,MIC,[2]; [17],1 µg/mL
same,MIC,[2]; [18],2 µg/mL
same,MIC,[2]; [19],8 µg/mL
same,MIC values,[2],.125 µg/mL
same,MIC,[3]; [20],0.25 µg/mL
same,MIC,[3]; [21],1 µg/mL
same,MIC,[3]; [22],1 µg/mL
same,MIC,[3]; [23],0.5 µg/mL
same,MIC,[3]; [24],2 µg/mL
same,MIC,[3]; [25],4 µg/mL
same,MIC,[3]; [26],4 µg/mL
same,MIC,[4]; [27],0.25 µg/mL
same,MIC,[4]; [28],8 µg/mL
same,MIC,[4]; [45],8 µg/mL
same,MIC,[4]; [29],8 µg/mL
same,MIC,[4]; [30],0.25 µg/mL
same,MIC,[4]; [31],4 µg/mL
same,MIC,[4]; [33],8 µg/mL
same,MIC values,[4]; [34],8 µg/mL
same,MIC values,[4]; [35],8 µg/mL
same,MIC,[5]; [36],0.5 µg/mL
same,MIC,[5]; [37],2 µg/mL
same,MIC,[5]; [38],4 µg/mL
same,MIC,[5]; [39],0.06 µg/mL
same,MIC,[5]; [40],0.06 µg/mL
same,MIC,[5]; [41],2 µg/mL
same,MIC,[5]; [42],8 µg/mL
same,MIC values,[6]; Table S1: RN4220 WT,0.25 µg/mL
same,MIC values,[6]; [43],0.25 µg/mL
telavancin [TLV],MIC,[1]; [8],0.125 µg/mL
same,MIC,[1]; [9],0.125 µg/mL
same,MIC,[1]; [10],0.125 µg/mL
same,MIC,[1]; [11],0.06 µg/mL
same,MIC,[1]; [12],0.5 µg/mL
same,MIC,[1]; [13],1 µg/mL
same,MIC values,[1],0.03 µg/mL
same,MIC,[2]; [14],0.06 µg/mL
same,MIC,[2]; [44],0.06 µg/mL
same,MIC,[2]; [15],0.25 µg/mL
same,MIC,[2]; [16],0.06 µg/mL
same,MIC,[2]; [17],0.06 µg/mL
same,MIC,[2]; [18],0.25 µg/mL
same,MIC,[2]; [19],0.25 µg/mL
same,MIC values,[2],0.06 µg/mL
same,MIC,[3]; [20],0.125 µg/mL
same,MIC,[3]; [21],0.25 µg/mL
same,MIC,[3]; [22],0.25 µg/mL
same,MIC,[3]; [23],0.125 µg/mL
same,MIC,[3]; [24],0.25 µg/mL
same,MIC,[3]; [25],0.5 µg/mL
same,MIC,[3]; [26],1 µg/mL
same,MIC,[4]; [27],0.125 µg/mL
same,MIC,[4]; [28],0.125 µg/mL
same,MIC,[4]; [45],0.125 µg/mL
same,MIC,[4]; [29],0.125 µg/mL
same,MIC,[4]; [31],0.25 µg/mL
same,MIC,[4]; [32],0.5 µg/mL
same,MIC,[4]; [33],0.5 µg/mL
same,MIC values,[4]; [34],.125 µg/mL
same,MIC values,[4]; [35],.125 µg/mL
same,MIC,[5]; [36],<0.03 µg/mL
same,MIC,[5]; [37],0.125 µg/mL
same,MIC,[5]; [38],0.25 µg/mL
same,MIC,[5]; [39],<0.03 µg/mL
same,MIC,[5]; [40],<0.03 µg/mL
same,MIC,[5]; [41],0.125 µg/mL
same,MIC,[5]; [42],0.5 µg/mL
same,MIC values,[6]; Table S1: RN4220 WT,0.06 µg/mL
same,MIC values,[6]; [43],0.06 µg/mL
same,MIC,[7],≤ 0.125 µg/mL
same,MIC by the end of daptomycin selection,"[7]; derivatives, end of daptomycin selection",0.125 to 0.25 µg/mL
